Data: the supplement of paper PMC10627819

How the values were obtained:
[1] = system: B. subtilis 168; experiment: fitness (endpoint OD595 vs no drug) (fraction); higher = more growth
In short: (§1)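 Bacterial growth was followed in 384-well plates seeded at OD595 0.01, with 30 µl per well, or 55 µl for S. pneumoniae, in TSB, LB Lennox or CY at 37 °C. OD595 was read every 30 min for 14 h, and each reading had the first reading subtracted as background. Fitness is the background-corrected optical density at entry into stationary phase divided by the robust mean of the no-drug control wells. This ratio is capped at 1.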

[2] = system: S. aureus Newman; experiment: as above
In short: as §1

[3] = system: S. pneumoniae D39V; experiment: as above
In short: as §1

[4] = system: B. subtilis 168; experiment: Bliss interaction score (quartile over a dose matrix) (fitness difference); higher = more antagonism (negative = synergy)
In short: (§2)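 Each plate was normalised to the robust mean of its own no-drug wells, using OD595 at entry into stationary phase, with values capped at 1. This normalised growth is the fitness value. The Bliss score is the difference between observed and product-expected fitness, with single-drug fitness inferred from the combination data and quartiles taken over technical, biological and donor/recipient replicates.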

[5] = system: S. aureus DSM 20231; experiment: as above
In short: as §2

[6] = system: S. aureus Newman; experiment: as above
In short: as §2

[7] = system: S. pneumoniae D39V; experiment: as above
In short: as §2

[8] = system: S. aureus DSM 20231; experiment: fitness (endpoint OD595 vs no drug) (fraction); higher = more growth
In short: as §1
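For Bliss interaction score (quartile over a dose matrix) in this document: first quartile when negative (synergy) and third quartile when positive (antagonism).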

CCC[C@@H]1C[C@@H](C(=O)N[C@@H]([C@H]2O[C@H](SC)[C@H](O)[C@@H](O)[C@H]2O)[C@H](C)Cl)N(C)C1 [Clindamycin] + CN(C)c1cc(NC(=O)CNC(C)(C)C)c(O)c2c1C[C@H]1C[C@H]3[C@H](N(C)C)C(O)=C(C(N)=O)C(=O)[C@@]3(O)C(O)=C1C2=O [Tigecycline]
fitness, [1], one replicate
Conditions	first compound 0.0039 µg/mL	first compound 0.0078 µg/mL	first compound 0.0156 µg/mL	first compound 0.0625 µg/mL	first compound 0.125 µg/mL	first compound 0.25 µg/mL
partner 0.039 µg/mL	0.986	0.866	0.862	–	–	–
partner 0.078 µg/mL	≥ 1	0.88	0.831	–	–	–
partner 0.125 µg/mL	–	–	–	0.809	0.656	0.44
partner 0.156 µg/mL	0.906	0.81	0.908	–	–	–
partner 0.25 µg/mL	–	–	–	0.722	0.575	0.342
partner 0.5 µg/mL	–	–	–	0.743	0.601	0.378

Conditions	fitness
[1], first compound 0.0625 µg/mL, partner 0.039 µg/mL	0.596
[1], first compound 0.0625 µg/mL, partner 0.078 µg/mL	0.537
[1], first compound 0.0625 µg/mL, partner 0.156 µg/mL	0.538
[1], first compound 0.125 µg/mL, partner 0.039 µg/mL	0.387
[1], first compound 0.125 µg/mL, partner 0.078 µg/mL	0.38
[1], first compound 0.125 µg/mL, partner 0.156 µg/mL	0.374
[1], first compound 0.25 µg/mL, partner 0.039 µg/mL	0.378
[1], first compound 0.25 µg/mL, partner 0.078 µg/mL	0.365
[1], first compound 0.25 µg/mL, partner 0.156 µg/mL	0.369
[2], first compound 0.0312 µg/mL, partner 0.039 µg/mL	0.708
[2], first compound 0.0312 µg/mL, partner 0.078 µg/mL	0.715
[2], first compound 0.0312 µg/mL, partner 0.156 µg/mL	0.709
[2], first compound 0.125 µg/mL, partner 0.039 µg/mL	0.118
[2], first compound 0.125 µg/mL, partner 0.078 µg/mL	0.112
[2], first compound 0.125 µg/mL, partner 0.156 µg/mL	0.113
[3], first compound 0.0125 µg/mL, partner 0.325 µg/mL	0.668
[3], first compound 0.0125 µg/mL, partner 0.65 µg/mL	0.695
[3], first compound 0.0125 µg/mL, partner 1.3 µg/mL	0.652
[3], first compound 0.015 µg/mL, partner 0.65 µg/mL	0.753
[3], first compound 0.015 µg/mL, partner 1.3 µg/mL	0.755
[3], first compound 0.015 µg/mL, partner 2.6 µg/mL	0.815
[3], first compound 0.025 µg/mL, partner 0.325 µg/mL	0.503
[3], first compound 0.025 µg/mL, partner 0.65 µg/mL	0.461
[3], first compound 0.025 µg/mL, partner 1.3 µg/mL	0.442
[3], first compound 0.03 µg/mL, partner 0.65 µg/mL	0.653
[3], first compound 0.03 µg/mL, partner 1.3 µg/mL	0.66
[3], first compound 0.03 µg/mL, partner 2.6 µg/mL	0.673
[3], first compound 0.05 µg/mL, partner 0.325 µg/mL	0.233
[3], first compound 0.05 µg/mL, partner 0.65 µg/mL	0.2
[3], first compound 0.05 µg/mL, partner 1.3 µg/mL	0.189
[3], first compound 0.06 µg/mL, partner 0.65 µg/mL	0.551
[3], first compound 0.06 µg/mL, partner 1.3 µg/mL	0.557
[3], first compound 0.06 µg/mL, partner 2.6 µg/mL	0.539

Conditions	Bliss interaction score
[4]	-0.0489
[5]	-0.0949
[6]	-0.0653
[7]	-0.0934

O=C(N[C@H](CO)[C@H](O)c1ccc([N+](=O)[O-])cc1)C(Cl)Cl [Chloramphenicol] + CC(=O)NC[C@H]1CN(c2ccc(N3CCOCC3)c(F)c2)C(=O)O1 [Linezolid]
fitness, [8]
Conditions	first compound 0.75 µg/mL	first compound 1.5 µg/mL	first compound 3 µg/mL
partner 0.125 µg/mL	0.609	0.321	0.11
partner 0.25 µg/mL	0.353	0.227	0.0855
partner 0.5 µg/mL	0.128	0.119	0.0711

[8], partner 1 µg/mL, one replicate
Conditions	fitness
first compound 0.75 µg/mL	0.0506
first compound 1.5 µg/mL	0.0474
first compound 3 µg/mL	0.0396

Conditions	Bliss interaction score
[4]	-0.141
[5]	-0.152
[6]	-0.112
[7]	0.0462

CCC[C@@H]1C[C@@H](C(=O)N[C@@H]([C@H]2O[C@H](SC)[C@H](O)[C@@H](O)[C@H]2O)[C@H](C)Cl)N(C)C1 [Clindamycin] + CN[C@@H]1[C@H](O[C@H]2[C@H](O[C@H]3[C@H](O)[C@@H](O)[C@H](N=C(N)N)[C@@H](O)[C@@H]3N=C(N)N)O[C@@H](C)[C@]2(O)C=O)O[C@@H](CO)[C@H](O)[C@H]1O [Streptomycin]
fitness, one replicate
Conditions	first compound 0.0039 µg/mL	first compound 0.0078 µg/mL	first compound 0.015 µg/mL	first compound 0.0156 µg/mL	first compound 0.03 µg/mL	first compound 0.06 µg/mL
[1], partner 2 µg/mL	≥ 1	0.855	–	0.895	–	–
[1], partner 4 µg/mL	≥ 1	1	–	0.951	–	–
[1], partner 8 µg/mL	0.994	0.85	–	0.853	–	–
[3], partner 2 µg/mL	–	–	0.889	–	0.767	0.621
[3], partner 16 µg/mL	–	–	0.712	–	0.564	0.424

fitness
Conditions	partner 1 µg/mL	partner 2 µg/mL	partner 4 µg/mL	partner 8 µg/mL
[1], first compound 0.0625 µg/mL	–	0.531	0.082	0.0325
[1], first compound 0.125 µg/mL	–	0.398	0.0693	0.0279
[1], first compound 0.25 µg/mL	–	0.105	0.0596	0.0359
[2], first compound 0.0312 µg/mL	0.679	0.571	–	–
[2], first compound 0.125 µg/mL	0.123	0.0638	0.0582	–
[3], first compound 0.0125 µg/mL	–	0.646	0.69	0.733
[3], first compound 0.015 µg/mL	–	–	0.837	0.786
[3], first compound 0.025 µg/mL	–	0.445	0.426	0.46
[3], first compound 0.03 µg/mL	–	–	0.71	0.646
[3], first compound 0.05 µg/mL	–	0.177	0.21	0.202
[3], first compound 0.06 µg/mL	–	–	0.586	0.544

Conditions	Bliss interaction score
[4]	-0.101
[5]	-0.0299
[6]	-0.0908
[7]	-0.0581
